Measured values from patent publication US20250312327A1, “COMPOSITION FOR COMBINATION THERAPY, COMPRISING 2,3,5-SUBSTITUTED THIOPHENE COMPOUND” (PHAROS IBIO CO., LTD, priority 2021, published 2025).
pIC50: −log10 of the molar value. Where two headings read alike, the source gives them in different places.

Columns and labels:
Test in all cases: CellTiter-Glo assay, drug administered alone
Type in all cases: cell-based
BDCM leukemia cell line [1] = tested on: BDCM leukemia cell line
U937 leukemia cell line [2] = conditions: Homo sapiens
HL-60 leukemia cell line [3] = conditions: Homo sapiens
U937 leukemia cell line [4] = conditions: Homo sapiens, U-937, 72 h
Method: (§1) The first and second tests were performed in triplicate on the above cell lines while reducing the concentration of venetoclax by half each time from 100 μM, and the third test was performed in triplicate on the BDCM cell line while reducing the concentration of venetoclax by half each time from 100 μM, and performed in triplicate on HL-60, MolM13, MolM14, and MV4-11 cell lines while reducing the concentration of venetoclax by half each time from 2.5 μM. The fourth test was performed in triplicate on HL-60, MolM13, MolM14, and MV4-11 cell lines while reducing the concentration by half each time from 2.5 μM.
(§2) Specifically, in the first and second tests, a 10-fold diluted solution was prepared by dissolving 50 μL of 10 mM venetoclax in 450 μL of solvent. 250 μL of the solution was serially diluted ½, an 8E-tube was filled with 250 μL of each dilution, and 80 μL of each cell line was dispensed into each well of a 96-well plate. Thereafter, 10 μL of each cell line was dispensed using JANUS and incubated for 72 hours under CO2. Celltiter-Glo assay was performed and then IC50 was calculated.
(§3) The first and second tests were performed in triplicate on the above cell lines while reducing the concentration of 5-azacytidine by half each time from 100 μM. Specifically, in the first and second tests, a 10-fold diluted solution was prepared by dissolving 15 μL of 20 mM 5-azacytidine in 285 μL of solvent. 250 μL of the solution was serially diluted ½, an 8E-tube was filled with 250 μL of each dilution, and 80 μL of each cell line (3,000 cells) was dispensed into each well of a 96-well plate. Thereafter, 10 μL of each cell line was dispensed using JANUS and incubated for 72 hours under CO2. Celltiter-Glo assay was performed and then IC50 was calculated.
as §3, with “cytarabine” for “5-azacytidine”, “50,000” for “100”, “10” for “15”, “50” for “20”, “490” for “285”

THP-1 leukemia cell line [5] = conditions: Homo sapiens, THP-1, 72 h
Method: as §1, §2, §3
as §3, with “cytarabine” for “5-azacytidine”, “50,000” for “100”, “10” for “15”, “50” for “20”, “490” for “285”

THP-1 leukemia cell line [6] = conditions: Homo sapiens
HL-60 leukemia cell line [7] = conditions: Homo sapiens; remark: listed apart in the source
Method: as §1, §2
(§4) In the third test, for the BCDM cell line, a 10-fold diluted solution was prepared by dissolving 15 μL of 10 mM venetoclax in 135 μL of solvent. 100 μL of the solution was serially diluted ½, an 8E-tube was filled with 100 μL of each dilution, and the cell line was dispensed into a 96-well plate. Thereafter, 25 μL of the cell line was dispensed using JANUS and incubated for 72 hours under CO2. Celltiter-Glo assay was performed and then IC50 was calculated. Meanwhile, for the HL-60, MolM13, MolM14, and MV4-11 cell lines, a 10-fold diluted solution was prepared by dissolving […] of solvent. 200 μL of the solution was serially diluted ½, an 8E-tube was filled with 200 μL of each dilution, and each of the cell lines was dispensed into a 96-well plate. Thereafter, 60 μL of each cell line was dispensed using JANUS and incubated for 72 hours under CO2. Celltiter-Glo assay was performed and then IC50 was calculated.
(§5) The fourth test was performed on HL-60, MolM13, MolM14, and MV4-11 cell lines in the same manner as the third test.
as §3
as §3, with “cytarabine” for “5-azacytidine”, “50,000” for “100”, “10” for “15”, “50” for “20”, “490” for “285”

[8] = tested on: MolM14 leukemia cell line; conditions: Homo sapiens
Method: as §1, §2, §4, §5, §3
as §3, with “cytarabine” for “5-azacytidine”, “50,000” for “100”, “10” for “15”, “50” for “20”, “490” for “285”

[9] = tested on: MolM13 leukemia cell line; conditions: Homo sapiens
Method: as §1, §2, §4, §5, §3
as §3, with “cytarabine” for “5-azacytidine”, “50,000” for “100”, “10” for “15”, “50” for “20”, “490” for “285”

[10] = tested on: MV4-11 leukemia cell line; conditions: Homo sapiens
Method: as §1, §2, §4, §5, §3
as §3, with “cytarabine” for “5-azacytidine”, “50,000” for “100”, “10” for “15”, “50” for “20”, “490” for “285”

BDCM leukemia cell line [11] = conditions: 72 h
Method: as §1, §2, §4, §3
as §3, with “cytarabine” for “5-azacytidine”, “50,000” for “100”, “10” for “15”, “50” for “20”, “490” for “285”

[12] = azacitidine administered alone, Table 10, read-out: IC50 Azacitidine
[13] = 5-azacytidine alone, read-out: IC50 First test
[14] = 5-azacytidine alone, read-out: IC50 Second test
[15] = venetoclax administered alone, Table 7, read-out: IC50 Venetoclax
[16] = venetoclax alone, read-out: IC50 First test
[17] = venetoclax alone, read-out: IC50 Second test
[18] = cytarabine administered alone, Table 13, read-out: IC50 Cytarabine
[19] = cytarabine alone, read-out: IC50 First test
[20] = cytarabine alone, read-out: IC50 Second test

Compound `Nc1ncn([C@@H]2O[C@H](CO)[C@@H](O)[C@H]2O)c(=O)n1` [5-azacytidine] has a pIC50 (BDCM leukemia cell line [1]; [12]) of 4.01, a pIC50 (U937 leukemia cell line [2]; U-937, azacitidine administered alone, Table 10, read-out: IC50 Azacitidine) of 5.51 and a pIC50 (HL-60 leukemia cell line [3]; HL-60, azacitidine administered alone, Table 10, read-out: IC50 Azacitidine) of 5.02. The pIC50 (U937 leukemia cell line [4]; [13]) was 5.72, the pIC50 (U937 leukemia cell line [4]; [14]) was 5.59 and the pIC50 (THP-1 leukemia cell line [5]; [13]) was 5.22. It also gave a pIC50 (THP-1 leukemia cell line [5]; [14]) of 5.20, a pIC50 (THP-1 leukemia cell line [6]; THP-1, azacitidine administered alone, Table 10, read-out: IC50 Azacitidine) of 5.47 and a pIC50 (HL-60 leukemia cell line [7]; HL-60, 72 h, 5-azacytidine alone, 72 hours, read-out: IC50 First test) of 4.83. The pIC50 (HL-60 leukemia cell line [7]; HL-60, 72 h, 5-azacytidine alone, 72 hours, read-out: IC50 Second test) was 4.88, the pIC50 ([8]; MOLM-14, 72 h, 5-azacytidine alone, MolM14, 72 hours, read-out: IC50 First test) was 5.41 and the pIC50 ([8]; MOLM-14, 72 h, 5-azacytidine alone, MolM14, 72 hours, read-out: IC50 Second test) was 5.55. For the same compound, the pIC50 ([8]; MOLM-14, azacitidine administered alone, MolM 14, Table 10, read-out: IC50 Azacitidine) was 5.80, the pIC50 ([9]; MOLM-13, 5-azacytidine alone, MolM13, 72 hours, read-out: IC50 First test) was 5.77 and the pIC50 ([9]; MOLM-13, 5-azacytidine alone, MolM13, 72 hours, read-out: IC50 Second test) was 5.85. The pIC50 ([9]; azacitidine administered alone, MolM 13, Table 10, read-out: IC50 Azacitidine) was 5.86, the pIC50 ([10]; 5-azacytidine alone, 72 hours, read-out: IC50 First test) was 5.52 and the pIC50 ([10]; 5-azacytidine alone, 72 hours, read-out: IC50 Second test) was 5.61. For the same compound, the pIC50 [10, 12] was 5.69, the pIC50 (BDCM leukemia cell line [11]; [13]) was 4.83 and the pIC50 (BDCM leukemia cell line [11]; [14]) was 4.63.

With `CC1(C)CCC(CN2CCN(c3ccc(C(=O)NS(=O)(=O)c4ccc(NCC5CCOCC5)c([N+](=O)[O-])c4)c(Oc4cnc5[nH]ccc5c4)c3)CC2)=C(c2ccc(Cl)cc2)C1` [Venetoclax] the pIC50 (BDCM leukemia cell line [1]; [15]) was 4.96, the pIC50 (U937 leukemia cell line [2]; U-937, venetoclax administered alone, Table 7, read-out: IC50 Venetoclax) was 5.11 and the pIC50 (HL-60 leukemia cell line [3]; HL-60, venetoclax administered alone, Table 7, read-out: IC50 Venetoclax) was 6.56. For the same compound, the pIC50 (U937 leukemia cell line [4]; [16]) was 5.14, the pIC50 (U937 leukemia cell line [4]; [17]) was 5.08 and the pIC50 (THP-1 leukemia cell line [5]; [16]) was 4.90. For the same compound, the pIC50 (THP-1 leukemia cell line [5]; [17]) was 4.90, the pIC50 (THP-1 leukemia cell line [6]; THP-1, venetoclax administered alone, Table 7, read-out: IC50 Venetoclax) was 4.90 and the pIC50 (HL-60 leukemia cell line [7]; HL-60, 72 h, venetoclax alone, 72 hours, read-out: IC50 First test) was 6.45. For the same compound, the pIC50 (HL-60 leukemia cell line [7]; HL-60, 72 h, venetoclax alone, 72 hours, read-out: IC50 Fourth test) was 6.56, the pIC50 (HL-60 leukemia cell line [7]; HL-60, 72 h, venetoclax alone, 72 hours, read-out: IC50 Second test) was 6.68 and the pIC50 (HL-60 leukemia cell line [7]; HL-60, 72 h, venetoclax alone, 72 hours, read-out: IC50 Third test) was 6.55. For the same compound, the pIC50 (HL-60 leukemia cell line [7]; HL-60, venetoclax alone, read-out: IC50) was ≥ 6.00, the pIC50 ([8]; MOLM-14, 72 h, venetoclax alone, MolM14, 72 hours, read-out: IC50 First test) was 6.76 and the pIC50 ([8]; MOLM-14, 72 h, venetoclax alone, MolM14, 72 hours, read-out: IC50 Fourth test) was 6.66. For the same compound, the pIC50 ([8]; MOLM-14, 72 h, venetoclax alone, MolM14, 72 hours, read-out: IC50 Second test) was 6.38, the pIC50 ([8]; MOLM-14, 72 h, venetoclax alone, MolM14, 72 hours, read-out: IC50 Third test) was 6.83 and the pIC50 ([8]; MOLM-14, venetoclax administered alone, MolM 14, Table 7, read-out: IC50 Venetoclax) was 6.55. The pIC50 ([8]; MOLM-14, venetoclax alone, MolM14, read-out: IC50) was ≥ 6.00, the pIC50 ([9]; MOLM-13, venetoclax alone, MolM13, 72 hours, read-out: IC50 First test) was 8.74 and the pIC50 ([9]; MOLM-13, venetoclax alone, MolM13, 72 hours, read-out: IC50 Fourth test) was 7.99. The pIC50 ([9]; MOLM-13, venetoclax alone, MolM13, 72 hours, read-out: IC50 Second test) was 7.90, the pIC50 ([9]; MOLM-13, venetoclax alone, MolM13, 72 hours, read-out: IC50 Third test) was 8.07 and the pIC50 ([9]; MOLM-13, venetoclax alone, MolM13, read-out: IC50) was ≥ 6.00. For the same compound, the pIC50 ([9]; venetoclax administered alone, MolM 13, Table 7, read-out: IC50 Venetoclax) was 7.84, the pIC50 [10, 15] was 7.86 and the pIC50 ([10]; venetoclax alone, 72 hours, read-out: IC50 First test) was 8.17. The pIC50 ([10]; venetoclax alone, 72 hours, read-out: IC50 Fourth test) was 7.85, the pIC50 ([10]; venetoclax alone, 72 hours, read-out: IC50 Second test) was 8.06 and the pIC50 ([10]; venetoclax alone, 72 hours, read-out: IC50 Third test) was 7.66. For the same compound, the pIC50 ([10]; venetoclax alone, read-out: IC50) was ≥ 6.00, the pIC50 (BDCM leukemia cell line [11]; [16]) was 4.91 and the pIC50 (BDCM leukemia cell line [11]; [17]) was 5.01. It also gave a pIC50 (BDCM leukemia cell line [11]; venetoclax alone, read-out: IC50 Third test) of 4.89.

Compound `Nc1ccn([C@@H]2O[C@H](CO)[C@@H](O)[C@@H]2O)c(=O)n1` [Cytarabine] has a pIC50 (BDCM leukemia cell line [1]; [18]) of 5.63, a pIC50 (U937 leukemia cell line [2]; U-937, cytarabine administered alone, Table 13, read-out: IC50 Cytarabine) of 8.03 and a pIC50 (HL-60 leukemia cell line [3]; HL-60, cytarabine administered alone, Table 13, read-out: IC50 Cytarabine) of 6.77. It also gave a pIC50 (U937 leukemia cell line [4]; [19]) of 7.74, a pIC50 (U937 leukemia cell line [4]; [20]) of 7.74 and a pIC50 (THP-1 leukemia cell line [5]; [19]) of 7.95. For the same compound, the pIC50 (THP-1 leukemia cell line [5]; [20]) was 7.82, the pIC50 (THP-1 leukemia cell line [6]; THP-1, cytarabine administered alone, Table 13, read-out: IC50 Cytarabine) was 7.97 and the pIC50 (HL-60 leukemia cell line [7]; HL-60, 72 h, cytarabine alone, 72 hours, read-out: IC50 First test) was 6.66. For the same compound, the pIC50 (HL-60 leukemia cell line [7]; HL-60, 72 h, cytarabine alone, 72 hours, read-out: IC50 Second test) was 6.79, the pIC50 ([8]; MOLM-14, 72 h, cytarabine alone, MolM14, 72 hours, read-out: IC50 First test) was 7.00 and the pIC50 ([8]; MOLM-14, 72 h, cytarabine alone, MolM14, 72 hours, read-out: IC50 Second test) was 7.03. The pIC50 ([8]; MOLM-14, cytarabine administered alone, MolM 14, Table 13, read-out: IC50 Cytarabine) was 7.07, the pIC50 ([9]; MOLM-13, cytarabine alone, MolM13, 72 hours, read-out: IC50 First test) was 7.41 and the pIC50 ([9]; MOLM-13, cytarabine alone, MolM13, 72 hours, read-out: IC50 Second test) was 7.38. It also gave a pIC50 ([9]; cytarabine administered alone, MolM 13, Table 13, read-out: IC50 Cytarabine) of 7.53, a pIC50 [10, 18] of 7.09 and a pIC50 ([10]; cytarabine alone, 72 hours, read-out: IC50 First test) of 7.00. The pIC50 ([10]; cytarabine alone, 72 hours, read-out: IC50 Second test) was 6.97, the pIC50 (BDCM leukemia cell line [11]; [19]) was 5.55 and the pIC50 (BDCM leukemia cell line [11]; [20]) was 5.35.
